Experimental data published in ChEMBL document CHEMBL1201862, “PubChem BioAssay data set” (2004).
Activity calls are given as the source filed them.

Assays:
Cytochrome P450 3A4 = Cytochrome P450 3A4 (Homo sapiens, UniProt P08684); conditions: Potency;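 note: confirmatory qHTS run detecting inhibitors and substrates of CYP3A4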
Cytochrome P450 2C19 = Cytochrome P450 2C19 (Homo sapiens, UniProt P33261); assay: Cytochrome panel assay with activity outcomes. Panel member name: p450-cyp2c19 Compounds with AC50 equal or less than 10 uM are considered active; assay type: functional
Cytochrome P450 2D6 = Cytochrome P450 2D6 (Homo sapiens, UniProt P10635);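 note: CYP2D6 member of a cytochrome P450 panel assay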
Chain of Cytochrome P450 2D6 (P10635 whole entry): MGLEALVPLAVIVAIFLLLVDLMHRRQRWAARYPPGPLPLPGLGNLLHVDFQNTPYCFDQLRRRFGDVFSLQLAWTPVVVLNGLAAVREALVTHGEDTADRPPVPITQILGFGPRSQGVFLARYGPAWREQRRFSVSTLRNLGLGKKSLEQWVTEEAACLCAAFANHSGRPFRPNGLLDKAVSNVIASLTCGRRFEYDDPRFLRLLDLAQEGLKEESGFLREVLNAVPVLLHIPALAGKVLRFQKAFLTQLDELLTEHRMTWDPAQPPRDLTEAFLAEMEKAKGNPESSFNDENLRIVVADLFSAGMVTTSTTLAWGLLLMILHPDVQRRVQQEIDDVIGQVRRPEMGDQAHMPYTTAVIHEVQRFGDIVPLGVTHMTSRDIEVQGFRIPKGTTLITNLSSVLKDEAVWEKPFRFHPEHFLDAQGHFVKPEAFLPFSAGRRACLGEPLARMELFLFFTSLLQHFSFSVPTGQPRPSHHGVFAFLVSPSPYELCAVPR

Beta-galactosidase = Beta-galactosidase (Escherichia coli, UniProt Q8VNN2); assay: beta-galactosidase enzyme inhibitors and activators, dose response, artefact control for CCR6 antagonist project, biochemical, E. coli enzyme, set 3 (AID 504712); assay type: functional
Chain of Beta-galactosidase (Q8VNN2 whole entry): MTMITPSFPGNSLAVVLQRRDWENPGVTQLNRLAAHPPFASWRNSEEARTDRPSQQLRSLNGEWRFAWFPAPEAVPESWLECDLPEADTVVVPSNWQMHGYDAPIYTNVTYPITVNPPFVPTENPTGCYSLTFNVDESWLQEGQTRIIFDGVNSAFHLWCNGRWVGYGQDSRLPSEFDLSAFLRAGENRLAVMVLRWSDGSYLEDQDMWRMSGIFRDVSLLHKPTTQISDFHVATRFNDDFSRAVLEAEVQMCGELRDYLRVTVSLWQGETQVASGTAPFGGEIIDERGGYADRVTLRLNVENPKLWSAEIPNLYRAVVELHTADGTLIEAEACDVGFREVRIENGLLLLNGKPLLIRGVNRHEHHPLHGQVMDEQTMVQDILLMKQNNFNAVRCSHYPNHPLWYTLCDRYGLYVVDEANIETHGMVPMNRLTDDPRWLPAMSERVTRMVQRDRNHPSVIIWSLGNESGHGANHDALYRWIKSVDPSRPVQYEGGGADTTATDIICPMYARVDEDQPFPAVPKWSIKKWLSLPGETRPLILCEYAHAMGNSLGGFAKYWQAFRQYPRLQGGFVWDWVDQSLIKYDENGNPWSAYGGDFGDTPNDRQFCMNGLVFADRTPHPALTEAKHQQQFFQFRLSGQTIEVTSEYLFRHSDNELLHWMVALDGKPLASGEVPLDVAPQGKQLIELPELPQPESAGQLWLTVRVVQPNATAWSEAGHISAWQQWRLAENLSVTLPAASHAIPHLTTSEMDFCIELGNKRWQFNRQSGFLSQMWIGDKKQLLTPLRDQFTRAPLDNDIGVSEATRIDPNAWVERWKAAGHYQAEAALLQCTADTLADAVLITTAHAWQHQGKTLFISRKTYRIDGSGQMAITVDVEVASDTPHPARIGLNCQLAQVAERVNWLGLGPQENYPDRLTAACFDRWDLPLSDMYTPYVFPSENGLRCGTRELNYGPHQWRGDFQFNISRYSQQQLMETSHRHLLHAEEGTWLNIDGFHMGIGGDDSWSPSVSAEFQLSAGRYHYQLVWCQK

[1] = test system: Streptococcus sp. 'group A'; assay: growth inhibition of control SK(-) GAS strain, dose response, counter-screen for streptokinase expression inhibitor project, luminescence, kanamycin, BacTiterGlo, confirmation (AID 1900); assay type: functional, organism-based
Streptokinase A = biological target: T1, Streptokinase A (Streptococcus pyogenes serotype M1, UniProt P10520); assay: S. pyogenes streptokinase expression inhibitors, potency, dose response, plasminogen activation absorbance, OD405 (AID 1914); assay type: functional, Streptococcus pyogenes M1 GAS;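 note: secreted streptokinase activity via plasminogen activation per viability signal from cell pellet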
T1 sequence (P10520 whole entry): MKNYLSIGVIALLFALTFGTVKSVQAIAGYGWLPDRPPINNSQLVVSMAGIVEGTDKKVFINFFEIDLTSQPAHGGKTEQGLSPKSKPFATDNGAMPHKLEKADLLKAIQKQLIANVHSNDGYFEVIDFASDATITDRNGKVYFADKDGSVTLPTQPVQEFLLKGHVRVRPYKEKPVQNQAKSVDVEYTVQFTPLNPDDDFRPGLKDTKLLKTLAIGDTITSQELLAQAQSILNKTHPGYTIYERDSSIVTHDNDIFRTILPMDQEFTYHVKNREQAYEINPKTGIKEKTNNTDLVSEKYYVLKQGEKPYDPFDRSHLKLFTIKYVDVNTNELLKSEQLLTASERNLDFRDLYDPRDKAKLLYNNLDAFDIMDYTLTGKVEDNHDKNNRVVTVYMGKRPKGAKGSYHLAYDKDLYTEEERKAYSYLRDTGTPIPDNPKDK

Streptococcus = assay: Group A Streptococcus viability loss, dose response, counter-screen for streptokinase expression inhibitor project, luminescence, BacTiterGlo (AID 1915); assay type: functional, organism-based;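 note: potency for reduction of bacterial viability or growth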
[2] = biological target: Voltage-dependent T-type calcium channel subunit alpha-1H (Homo sapiens, UniProt O95180); assay type: functional;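 note: channel activity triggered by adding a high calcium stimulation buffer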
Chain of Voltage-dependent T-type calcium channel subunit alpha-1H (O95180 whole entry): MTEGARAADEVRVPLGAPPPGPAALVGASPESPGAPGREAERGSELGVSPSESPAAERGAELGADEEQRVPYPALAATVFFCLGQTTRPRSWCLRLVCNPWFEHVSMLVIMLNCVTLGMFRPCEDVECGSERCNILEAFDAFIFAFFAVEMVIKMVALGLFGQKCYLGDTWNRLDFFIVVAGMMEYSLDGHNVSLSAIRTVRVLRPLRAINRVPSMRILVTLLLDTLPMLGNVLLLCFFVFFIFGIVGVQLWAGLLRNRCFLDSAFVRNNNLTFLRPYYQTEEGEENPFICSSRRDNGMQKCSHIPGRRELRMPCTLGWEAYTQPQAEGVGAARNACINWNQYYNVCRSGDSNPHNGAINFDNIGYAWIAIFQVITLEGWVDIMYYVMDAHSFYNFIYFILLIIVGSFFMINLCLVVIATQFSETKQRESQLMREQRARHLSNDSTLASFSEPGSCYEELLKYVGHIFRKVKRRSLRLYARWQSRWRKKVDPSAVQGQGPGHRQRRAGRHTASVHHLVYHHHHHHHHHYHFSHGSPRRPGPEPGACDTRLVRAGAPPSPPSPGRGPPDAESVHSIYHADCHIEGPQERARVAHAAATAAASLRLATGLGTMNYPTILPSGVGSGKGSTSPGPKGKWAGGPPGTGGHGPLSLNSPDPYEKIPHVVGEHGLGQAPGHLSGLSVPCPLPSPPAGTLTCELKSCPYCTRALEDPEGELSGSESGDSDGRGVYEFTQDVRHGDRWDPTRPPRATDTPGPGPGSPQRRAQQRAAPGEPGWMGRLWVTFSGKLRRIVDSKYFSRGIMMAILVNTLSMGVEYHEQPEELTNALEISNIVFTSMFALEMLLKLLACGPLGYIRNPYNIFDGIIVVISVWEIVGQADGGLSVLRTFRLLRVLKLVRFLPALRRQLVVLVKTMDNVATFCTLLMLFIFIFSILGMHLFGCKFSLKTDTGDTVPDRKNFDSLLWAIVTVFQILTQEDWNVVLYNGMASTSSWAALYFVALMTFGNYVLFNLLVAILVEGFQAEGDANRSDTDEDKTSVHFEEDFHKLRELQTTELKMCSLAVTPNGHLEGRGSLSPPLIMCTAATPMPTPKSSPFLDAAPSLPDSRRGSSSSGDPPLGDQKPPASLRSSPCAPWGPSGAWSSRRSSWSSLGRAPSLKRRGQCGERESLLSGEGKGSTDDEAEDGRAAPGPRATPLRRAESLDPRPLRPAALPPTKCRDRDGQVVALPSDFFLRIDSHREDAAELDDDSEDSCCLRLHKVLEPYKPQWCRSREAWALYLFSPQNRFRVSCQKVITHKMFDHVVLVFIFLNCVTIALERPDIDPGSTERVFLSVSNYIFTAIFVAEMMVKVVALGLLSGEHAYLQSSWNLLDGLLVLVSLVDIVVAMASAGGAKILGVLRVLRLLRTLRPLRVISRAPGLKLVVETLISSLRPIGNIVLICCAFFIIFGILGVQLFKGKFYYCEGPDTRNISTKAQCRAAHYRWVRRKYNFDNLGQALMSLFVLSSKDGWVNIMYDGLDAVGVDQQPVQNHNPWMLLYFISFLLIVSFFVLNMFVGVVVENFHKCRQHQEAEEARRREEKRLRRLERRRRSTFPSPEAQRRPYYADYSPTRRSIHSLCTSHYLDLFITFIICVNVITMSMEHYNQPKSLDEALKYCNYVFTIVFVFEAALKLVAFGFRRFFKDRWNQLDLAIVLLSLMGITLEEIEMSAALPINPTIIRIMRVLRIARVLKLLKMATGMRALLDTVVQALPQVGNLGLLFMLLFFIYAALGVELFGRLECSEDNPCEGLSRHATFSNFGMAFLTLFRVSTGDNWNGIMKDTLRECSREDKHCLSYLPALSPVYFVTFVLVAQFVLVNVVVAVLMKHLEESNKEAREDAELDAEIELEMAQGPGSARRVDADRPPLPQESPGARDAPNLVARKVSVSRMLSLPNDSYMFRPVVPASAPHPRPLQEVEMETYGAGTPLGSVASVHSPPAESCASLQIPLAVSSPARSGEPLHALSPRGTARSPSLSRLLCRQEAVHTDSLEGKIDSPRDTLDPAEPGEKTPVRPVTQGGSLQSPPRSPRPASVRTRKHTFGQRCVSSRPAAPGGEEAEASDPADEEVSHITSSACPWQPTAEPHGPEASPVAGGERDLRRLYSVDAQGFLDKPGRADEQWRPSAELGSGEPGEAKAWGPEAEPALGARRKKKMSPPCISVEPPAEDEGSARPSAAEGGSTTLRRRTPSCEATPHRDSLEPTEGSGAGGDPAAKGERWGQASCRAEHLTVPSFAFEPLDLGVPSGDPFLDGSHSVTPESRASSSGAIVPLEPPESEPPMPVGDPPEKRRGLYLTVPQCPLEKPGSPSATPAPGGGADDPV

Vero [3] = assay: cells; assay type: functional, cell-based; conditions: Chlorocebus sabaeus
Vero [4] = assay: cells; assay type: functional; conditions: Chlorocebus sabaeus
[5] = biological target: T2, Carboxy-terminal domain RNA polymerase II polypeptide A small phosphatase 1 (Homo sapiens, UniProt Q9GZU7); assay: inhibitors of CTDSP1, concentration-response testing, biochemical assay, absorbance-based, actives from ultra-high-throughput screening (AID 540297); assay type: functional
T2 sequence (Q9GZU7 whole entry): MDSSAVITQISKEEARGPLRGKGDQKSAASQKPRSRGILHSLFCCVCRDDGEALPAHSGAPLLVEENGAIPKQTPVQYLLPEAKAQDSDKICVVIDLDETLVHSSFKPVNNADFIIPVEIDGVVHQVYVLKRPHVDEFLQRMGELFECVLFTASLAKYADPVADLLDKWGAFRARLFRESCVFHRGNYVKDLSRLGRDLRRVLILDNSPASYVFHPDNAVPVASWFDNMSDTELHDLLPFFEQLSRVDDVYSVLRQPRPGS

[6] = biological target: T3, Low molecular weight phosphotyrosine protein phosphatase (Homo sapiens, UniProt P24666); assay type: functional; conditions: read-out: IC50_Mean;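 note: Dose-response confirmation assay measuring inhibition of LMPTP enzyme activity by fluorescence intensity read-out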
T3 sequence (P24666 whole entry): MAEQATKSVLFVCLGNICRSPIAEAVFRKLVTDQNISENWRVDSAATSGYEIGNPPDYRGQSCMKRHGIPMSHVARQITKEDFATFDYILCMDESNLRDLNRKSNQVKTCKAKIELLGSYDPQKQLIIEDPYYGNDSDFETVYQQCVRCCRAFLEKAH

Cytochrome P450 1A2 = biological target: T4, Cytochrome P450 1A2 (Homo sapiens, UniProt P05177);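 note: PubChem cytochrome P450 panel assay, CYP1A2 panel member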
T4 sequence (P05177 whole entry): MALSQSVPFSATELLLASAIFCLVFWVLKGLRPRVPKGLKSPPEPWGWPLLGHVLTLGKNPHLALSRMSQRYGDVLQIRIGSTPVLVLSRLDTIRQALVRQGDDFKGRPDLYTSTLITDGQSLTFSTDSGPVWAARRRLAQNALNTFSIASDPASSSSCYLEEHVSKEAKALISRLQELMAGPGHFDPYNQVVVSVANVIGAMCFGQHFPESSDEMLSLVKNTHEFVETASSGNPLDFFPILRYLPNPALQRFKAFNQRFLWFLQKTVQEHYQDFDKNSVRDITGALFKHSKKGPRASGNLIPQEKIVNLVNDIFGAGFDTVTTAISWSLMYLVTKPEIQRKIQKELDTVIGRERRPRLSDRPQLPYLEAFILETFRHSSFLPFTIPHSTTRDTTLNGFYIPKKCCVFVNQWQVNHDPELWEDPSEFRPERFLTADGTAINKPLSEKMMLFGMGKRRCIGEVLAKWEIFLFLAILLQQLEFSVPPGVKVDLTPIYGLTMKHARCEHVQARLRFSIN

Melanocortin receptor 4 = Melanocortin receptor 4 (Homo sapiens, UniProt P32245); assay type: functional, cell-based;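 note: Cell-based assay with luminescence read-out, confirmatory dose-response testing for agonist activity of biased ligands at MC4R; human U2OS cells with tagged receptor and beta-arrestin; potency of agonists that increase receptor coupling to beta-arrestin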
Chain of Melanocortin receptor 4 (P32245 whole entry): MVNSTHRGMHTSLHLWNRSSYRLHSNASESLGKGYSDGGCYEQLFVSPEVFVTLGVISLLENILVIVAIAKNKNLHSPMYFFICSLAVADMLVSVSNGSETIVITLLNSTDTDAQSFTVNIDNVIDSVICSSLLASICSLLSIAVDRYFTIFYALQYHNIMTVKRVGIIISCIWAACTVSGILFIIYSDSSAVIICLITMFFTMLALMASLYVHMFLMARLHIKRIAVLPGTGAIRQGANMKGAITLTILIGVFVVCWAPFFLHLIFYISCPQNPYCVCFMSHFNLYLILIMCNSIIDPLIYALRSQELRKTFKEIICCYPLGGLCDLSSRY

H9c2 = assay: cells; assay type: functional, cell-based; conditions: Rattus norvegicus, H9c2, Myocardium
[7] = cytotoxicity toward NIH3T3 fibroblasts, dose response, counter-screen, cell-based, ATP luminescence, mouse fibroblasts (AID 2010); assay type: functional;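 note: cells exposed to compound for about 90 hours before reading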
[8] = biological target: T5, Ubiquitin-conjugating enzyme E2 N (Homo sapiens, UniProt P61088); assay type: functional;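 note: Dose-response confirmation in a TR-FRET assay detecting UBC13-driven polyubiquitin chain formation, inhibition measured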
T5 sequence (P61088 whole entry): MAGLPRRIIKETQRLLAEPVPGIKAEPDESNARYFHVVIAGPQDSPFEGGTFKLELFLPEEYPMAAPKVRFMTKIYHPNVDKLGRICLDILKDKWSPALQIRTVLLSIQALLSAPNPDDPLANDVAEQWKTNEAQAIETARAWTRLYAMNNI

[9] = inhibitors of intracellular T. cruzi replication, confirmation, NIH3T3 host cells, beta-gal luminescence (AID 2044); assay type: functional, cell-based;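 note: intracellular parasites grown in NIH/3T3 mouse fibroblasts as host cells; luminescent beta-galactosidase reporter signal from transgenic T. cruzi replicating inside host cells; inhibitors lower the luminescence signal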
[10] = Luminescence Cell-Based Dose Retest to Confirm Inhibitors of Cancer Stem Cells. [Related pubchem assays (depositor defined):AID2717, AID2721]; assay type: functional; conditions: Homo sapiens
[11] = biological target: T6, Heat shock factor protein 1 (Mus musculus, UniProt P38532); assay: HSF1 potentiators in luciferase reporter cells, confirmation, cell-based, NIH3T3, luminescence, dose retest (AID 435004); assay type: functional;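 note: stress induced by proteasome inhibitor MG132 added 30 min after compound; luciferase reporter driven by HSF1 response element in NIH3T3 cells; actives raise luminescence as potentiators of the MG132 stress response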
T6 sequence (P38532 whole entry): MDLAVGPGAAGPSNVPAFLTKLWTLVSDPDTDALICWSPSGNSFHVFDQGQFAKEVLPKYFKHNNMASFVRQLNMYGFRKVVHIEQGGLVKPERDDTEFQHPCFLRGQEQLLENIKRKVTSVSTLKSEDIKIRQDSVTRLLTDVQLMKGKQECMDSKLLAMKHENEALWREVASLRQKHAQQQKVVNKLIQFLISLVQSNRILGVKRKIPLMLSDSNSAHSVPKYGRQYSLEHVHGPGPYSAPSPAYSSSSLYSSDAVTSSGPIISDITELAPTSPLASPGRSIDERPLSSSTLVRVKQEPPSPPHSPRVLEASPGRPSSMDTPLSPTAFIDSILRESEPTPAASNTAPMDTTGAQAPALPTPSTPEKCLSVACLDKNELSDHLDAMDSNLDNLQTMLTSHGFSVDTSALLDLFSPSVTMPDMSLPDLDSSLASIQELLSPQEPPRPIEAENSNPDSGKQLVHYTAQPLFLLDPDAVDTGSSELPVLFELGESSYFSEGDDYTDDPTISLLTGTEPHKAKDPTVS

[12] = cytotoxicity in HEK-293T cells, dose response, cytotoxicity control for TCR NF-kB inhibitor project, luminescence, T-cell screen hits (AID 489026); assay type: functional, cell-based;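 note: cells exposed to compound about 14 hours before the viability readout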
Paired box protein Pax-8 = Paired box protein Pax-8 (Homo sapiens, UniProt Q06710); assay: inhibitors of PAX8-driven TPO luciferase reporter, dose response, RMG-I cells, cherry-pick (AID 687027); assay type: functional, cell-based;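 note: luciferase reporter driven by Pax8 target thyroperoxidase promoter measured by SteadyGlo luminescence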
[13] = biological target: T7, Rac GTPase-activating protein 1 (Homo sapiens, UniProt Q9H0H5); assay: MgcRacGAP GTPase-activating activity inhibitors, confirmation, biochemical, ADP Hunter fluorescence, primary and confirmatory (AID 624330); assay type: functional
T7 sequence (Q9H0H5 whole entry): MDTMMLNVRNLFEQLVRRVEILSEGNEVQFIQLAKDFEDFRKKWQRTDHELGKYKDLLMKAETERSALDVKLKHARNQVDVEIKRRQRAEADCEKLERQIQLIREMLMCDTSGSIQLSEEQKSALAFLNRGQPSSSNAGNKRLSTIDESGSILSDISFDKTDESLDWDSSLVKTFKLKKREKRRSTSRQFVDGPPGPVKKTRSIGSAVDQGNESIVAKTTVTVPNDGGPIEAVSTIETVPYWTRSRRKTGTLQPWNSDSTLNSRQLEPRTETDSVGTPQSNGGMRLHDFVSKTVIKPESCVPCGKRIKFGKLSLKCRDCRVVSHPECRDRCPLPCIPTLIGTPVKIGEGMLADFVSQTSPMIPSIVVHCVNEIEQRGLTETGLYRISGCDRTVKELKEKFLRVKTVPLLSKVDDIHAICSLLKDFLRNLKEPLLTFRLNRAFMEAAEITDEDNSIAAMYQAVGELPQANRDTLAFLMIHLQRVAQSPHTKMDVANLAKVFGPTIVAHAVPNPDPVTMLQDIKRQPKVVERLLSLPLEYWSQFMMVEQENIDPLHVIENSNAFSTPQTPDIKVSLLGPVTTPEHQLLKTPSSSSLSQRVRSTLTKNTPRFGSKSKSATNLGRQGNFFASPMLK

[14] = HEp-2 cell cytotoxicity, dose response, cytotoxicity control for RSV inhibitor project, HTS (AID 2410); assay type: functional; conditions: human respiratory syncytial virus

Chain of Cytochrome P450 3A4 (P08684 whole entry): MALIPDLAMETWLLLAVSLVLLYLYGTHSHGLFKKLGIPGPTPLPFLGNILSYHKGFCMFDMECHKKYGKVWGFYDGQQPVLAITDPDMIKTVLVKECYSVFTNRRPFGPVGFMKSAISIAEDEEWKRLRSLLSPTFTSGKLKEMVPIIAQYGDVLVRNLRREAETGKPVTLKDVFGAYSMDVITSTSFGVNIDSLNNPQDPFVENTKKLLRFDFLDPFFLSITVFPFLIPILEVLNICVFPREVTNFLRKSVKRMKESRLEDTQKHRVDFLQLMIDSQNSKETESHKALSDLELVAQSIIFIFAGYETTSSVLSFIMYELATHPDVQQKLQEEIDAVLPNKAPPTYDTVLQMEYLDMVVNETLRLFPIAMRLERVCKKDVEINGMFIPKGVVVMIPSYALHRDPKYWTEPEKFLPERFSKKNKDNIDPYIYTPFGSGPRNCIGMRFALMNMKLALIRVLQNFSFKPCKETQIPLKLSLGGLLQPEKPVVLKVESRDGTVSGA

## CC(=O)Oc1ccc2c(c1C(C)C)CCC1C(C)(C)CCC[C@@]21C (some centres undefined)
Cytochrome P450 3A4
  AC50: 39.8 µM (inconclusive)

## FC(F)(F)c1ccc(CN2C[C@@H]3C(c4ccc(Cl)nc4)C4(c5ccccc5)CC3(C4)[C@H]2c2ccccc2)cc1 (some centres undefined)
Cytochrome P450 3A4
  AC50: 20 µM (inconclusive)

## Cc1c(Cl)c(S(N)(=O)=O)cc(S(N)(=O)=O)c1NC(=O)c1ccc(Cl)cc1
Cytochrome P450 2C19
  AC50: inconclusive
Cytochrome P450 2D6
  AC50: inconclusive

## COC(=O)[C@@H]1C[C@H]2CC[C@H](O)C[C@H]2N1Cc1ccc(C)s1
Cytochrome P450 3A4
  AC50: 15.8 µM (inconclusive)

## CC(=O)N1c2ccc(S(=O)(=O)N3CCCC(C(=O)Nc4cccc(Cl)c4)C3)cc2CC1C (centres undefined)
Beta-galactosidase
  IC50: > 66.6 µM (inactive)

## Cc1ccc2nc(N3C(=O)CNC3=S)sc2c1
Beta-galactosidase
  IC50: > 66.6 µM (inactive)
[1]
  EC50: 4.9 µM (active)
Streptokinase A
  EC50: > 150 µM (not active)
Streptococcus
  EC50: 11.2 µM (active)

## O=S(=O)(NCCc1csc(-c2ccccc2)n1)c1ccc2c(c1)OCCO2
[2]
  EC50: 23.2 µM (active)

## COc1ccc(/C=C2\SC(=S)N(CCC(=O)NCCc3ccc(O)cc3)C2=O)cc1
Vero [3]
  IC50: > 25 µM (active)
Vero [4]
  CC50: > 25 µM (active)

## COC(=O)COc1ccc2oc(=O)cc(-c3cc4cccc(OC)c4o3)c2c1
[5]
  IC50: 9.43 µM (active)
[6]
  IC50: 19.1 µM (active)

## Fc1ccc(Cn2nnnc2C(c2ccc(Cl)cc2)N2CCSCC2)cc1 (centres undefined)
[2]
  EC50: 9.78 µM (active)

## COc1ccc(CCn2c(=N)c(C(=O)NCc3ccco3)cc3c(=O)n4ccccc4nc32)cc1
Cytochrome P450 1A2
  AC50: 15.8 µM (inconclusive)
[6]
  IC50: 25.7 µM (inactive)

## O=C(O)[C@@H](c1ccccc1)[C@@H](C(=O)O)c1ccccc1
Cytochrome P450 2D6
  AC50: inconclusive

## CO[C@@H]1COC(=O)CC=C[C@@H](C)[C@@H]2C=C[C@H](O)[C@@H](COC(=O)[C@H](C)NC(=O)CC=C[C@H]1C)O2
Cytochrome P450 2D6
  AC50: inconclusive

## CN1CCc2c(sc3c2c(=O)n(-c2ccccc2)c2nncn32)C1
Cytochrome P450 2D6
  AC50: inconclusive

## O=C1CC(N2CCN(c3ccccn3)CC2)C(=O)N1CC(c1ccccc1)c1ccccc1 (centres undefined)
[2]
  EC50: 5.85 µM (active)

## Cc1nc(NC2CCCCC2)c2nc(-c3ccccc3)n(CCCN3CCOCC3)c2n1
Cytochrome P450 3A4
  AC50: 5.01 µM (inconclusive)

## CC(=O)Nc1cc(-c2cccc(F)c2)cn2c(-c3ccc(F)c(Cl)c3)cnc12
Melanocortin receptor 4
  EC50: > 89.2 µM (inactive)

## COc1ccc(-c2cc(NC(C)=O)c3ncc(-c4cccc(C(C)=O)c4)n3c2)cc1OC
H9c2
  IC50: > 79 µM (inactive)
Melanocortin receptor 4
  EC50: > 89.2 µM (inactive)

## Cc1cc(C)nc(Nc2nc(C(N)Cc3ccc(Cl)cc3)cs2)n1 (centres undefined)
Melanocortin receptor 4
  EC50: > 89.2 µM (inactive)

## N=C(N)N/N=C/c1ccc2cccc(OCc3ccccc3)c2n1
Beta-galactosidase
  IC50: > 66.6 µM (inactive)
[7]
  EC50: > 60 µM (not active)
[8]
  IC50: > 20 µM (inactive)
[9]
  EC50: 0.685 µM (active)

## Sc1nnc(-c2ccccc2)n1/N=C/c1ccc(-c2ccccc2Cl)o1
[10]
  AC50: 4 µM (active)
[11]
  EC50: > 260 µM (inactive)
Vero [3]
  IC50: 2.17 µM (active)

## O=C(N/N=C/C=C/c1ccccc1)c1cc2c(ccc3ccccc32)o1
Cytochrome P450 1A2
  AC50: 0.0447 µM (inconclusive)
[6]
  IC50: 9.73 µM (active)

## C[C@]12CC[C@H](O)C[C@H]1CC[C@@H]1[C@@H]2CC[C@]2(C)[C@@H](C3=CC(=O)OC3)CC[C@]12O [DIGITOXIGENIN]
[12]
  IC50: > 80 µM (inactive)
[10]
  AC50: 0.467 µM (active)
Vero [3]
  IC50: < 0.05 µM (active)
Paired box protein Pax-8
  AC50: 1.38 µM (active)
Vero [4]
  CC50: 1.45 µM (active)

## C[C@]12CC[C@H]3C(=CCc4cc(O)ccc43)[C@@H]1CCC2=O [EQUILIN]
[13]
  IC50: 94.6 µM (active)
Cytochrome P450 3A4
  AC50: 39.8 µM (inconclusive)
[14]
  CC50: 22.6 µM (active)
